The text below walks through data of patent US20120295982A1, “TREATING HUMAN MALE COPD PATIENTS WITH ORAL BEDORADRINE” (MediciNova, Inc., priority 2011, published 2012).

Molecules are shown by their SMILES. Where a name gives a salt, the structure may show the parent alone. Some results are limits rather than exact numbers.

Data set [1] in a line: Oral bioavailability in rats. Format: in vivo.
The nature of data set [2]: Oral bioavailability in rabbits. The settings on record: rabbit, in vivo, read-out: Oral F %.
Data set [3] has as its system patients with acute exacerbations of asthma (AEA). The experiment in a line: Placebo-controlled dose-escalating test of i.v. MN-221 plus standard of care in acute exacerbations of asthma (emergency department). Format: in vivo, human. On the procedure: This example provides certain preferred oral dosages for treating male COPD patients according to this invention. Initially, the efficacy and safety of administering intravenous MN-221 in combination with standard of care (SOC) for treating acute exacerbations of asthma (AEA) in an emergency department (ED) setting is determined. The testing was performed in a randomized, placebo-controlled, dose-escalating, setting. Twenty nine patients received SOC (nebulized albuterol and ipratropium plus oral corticosteroid). Patients with FEV1≦55% of predicted were randomized to MN-221 (240 or 450 μg infused over 15 min or 1080 μg over 2 hr) or Placebo. MN-221 was administered as follows: 16 μg/min for 15 min (total dose of 240 μg); 30 μg/min for 15 min (total dose of 450 μg); 16 μg/min for 15 min+8 μg/min for 105 min (total dose of 1,080 μg); and 2 patients received total dose of 1,995 μg. Safety, efficacy and PK parameters were monitored hourly throughout a 5 hr treatment period and a 24 hr follow-up visit. Nebulized albuterol (2.5 mg) and/or ipratropium (0.5 mg) was available hourly during screening and treatment phases. Efficacy endpoints included spirometry, dyspnea indexing, albuterol use, and hospitalization rates. The testing was completed with 13 patients (n=13) in SOC+Placebo and 16 patients (n=16) receiving SOC+MN-221; 5 at 240 μg, 6 at 450 μg, and 5 intended for a 1080 μg dose. Patients received Standard of Care (SOC) treatment in addition to adjunctive treatment with MN-221 or placebo. MN-221 was well-tolerated.

For the compound `CN(C)C(=O)COc1ccc2c(c1)C[C@@H](NC[C@H](O)c1ccc(O)c(CCO)c1)CC2` [MN-221, bedoradrine sulfate], in data set [1] (orally administered, female vs male rats), the “gender difference of oral bioavailability” value was “greater bioavailability in female rats compared to male rats”. In addition, the bioavailability in data set [1] (rat, in vivo, po, rats, read-out: Oral F %) was at most 3%; in data set [2], at most 3%. The “heart rate relative to Placebo” value in data set [3] (all MN-221 group) is “minimally elevated”. The hospitalization rate in data set [3] (all MN-221 group (4/16), i.v. plus SOC) was 25%. In addition, in data set [3] (all MN-221 group vs. Placebo), the “FEV1 (% predicted), change from baseline in AUC1-5 hr, higher vs. Placebo” value is given as 43%. Besides, in data set [3] (i.v. MN-221 240-1080 μg plus standard of care, AEA patients), the tolerability result is reported as “well-tolerated”. In addition, the “electrocardiograph (ECG) findings” value in data set [3] (i.v. MN-221 plus SOC) is “No abnormal electrocardiograph (ECG) findings were observed”. Moreover, the “intensity of the majority of adverse events” value in data set [3] (i.v. MN-221 plus SOC) is given as “mild to moderate in intensity”.
